Patent publication US9388126B2, “Sigma receptor ligands and methods of modulating cellular protein homeostasis using same” (Drexel University, priority 2012, dated 2016)

Tests used:
[1] = tested on: MDA-MB-468 (GFP-LC3) cells; experiment: GFP-LC3 punctae (autophagosome formation) microscopy assay; assay type: cell-based, human; details: for EC50: Homo sapiens, MDA-MB-468, 24 hours of treatment, read-out: potency (EC50±S.E.M.) of autophagosome formation (GFP-LC3 punctae); for concentration at which precipitous cell death occurred: following 24 hours of treatment; for GFP-LC3 punctae per cell: drug concentrations up to 100 μM
Experimental: The human GFP-LC3 expression plasmid, pEGFP-LC3 (a gift from Drs. Grazia Ambrosini and Gary K. Schwartz, MSKCC), was stably transfected into MDA-MB-468 and selected with 0.5 mg/ml G418 sulfate. Stable populations were generated and compared to parental MDA-MB-468 for Sigma1 expression and autophagic and growth inhibitory response to Sigma ligands. GFP-LC3 translocation (punctae formation) was assessed by microscopy in MDA-MB-468 (GFP-LC3) stable cell populations. For microscopy-based experiments, cells were seeded onto Lab-Tek II glass chamber slides (Nalge Nunc International). […] Images of GFP-LC3 punctae were acquired with a Zeiss Axioplan 2 Imaging widefield microscope using Axiovision LE software. Punctae were counted using the spot quantitation program in the Fluoro-Chem software package (Alpha Innotech) and confirmed in parallel by manual counting. Autophagosome formation in MDAMB-468 (GFP-LC3) cells was quantitated as the mean number of GFP-LC3 punctae per GFP positive cell.
Initially, an established immunoblot-based assay to detect microtubule associated protein light chain 3 (LC3) lipidation was used to test for the activation of autophagy. […] Since transient transfections can produce spurious GFP-LC3 aggregates, stable GFP-LC3 transfected populations of MDA-MB-468 (GFP-LC3) were generated. […]

MDA-MB-468 cells = experiment: Cell death by trypan blue exclusion; assay type: cell-based, human; details: 3-MA alone (5 mM), 24 hours
Experimental: Trypan blue exclusion and propidium iodide staining were used to quantify general cell death and the presence of apoptotic cell death was confirmed by immunoblot. The percentage of dead cells in a given population was determined by quantifying the number of trypan blue positive (dead) cells and dividing by the total number of trypan blue positive and negative cells.

[2] = tested on: MDA-MB-468 breast adenocarcinoma cells; experiment: LC3 lipidation (LC3II) immunoblot; assay type: cell-based, human; details: 10 μM, 24 hours
Experimental: Cells were lysed and proteins extracted in a modified RIPA buffer (25 mM Tris-HCl pH 7.6, 150 mM NaCl, 1% NP-40, 1% sodium deoxycholate and 0.1% SDS) supplemented with 10% glycerol (volume/volume), complete protease inhibitor cocktail (Roche), and Halt phosphatase inhibitor cocktail (Pierce). Approximately 10-20 μg of detergent soluble protein were resolved on NOVEX 10-20% polyacrylamide Tris-glycine gels (InVitrogen). Immunoblots were performed in a 20 mM Tris-buffered 137 mM saline solution (pH 7.6) containing 0.1% Tween-20 (polyoxyethylene (20) sorbitan monolaurate) and 5% (weight/volume) blotting grade non-fat dry milk (BioRad). The Lumigen PS-3 enhanced chemiluminescence kit (GE Healthcare) was used to reveal immunoblotted proteins.
Initially, an established immunoblot-based assay to detect microtubule associated protein light chain 3 (LC3) lipidation was used to test for the activation of autophagy. […] Since transient transfections can produce spurious GFP-LC3 aggregates, stable GFP-LC3 transfected populations of MDA-MB-468 (GFP-LC3) were generated. These cells were treated for 24 hours with increasing concentrations of Sigma receptor antagonists and agonists, and were compared to basal and DMSO treated controls (FIGS. 4B & 4C).

MCF7 tumor xenograft = experiment: MCF7 tumor xenograft, tamoxifen potentiation by rimcazole; assay type: in vivo, athymic mice; details: for inhibition of tumor growth: after 11 days of daily i.p. treatment, tamoxifen 1 mg/kg, Rimcazole 10 mg/kg, each alone
Experimental: Preliminary tumor xenograft experiments were performed according to MSKCC Tumor Assessment Core facility protocol. Briefly, β-estradiol treated athymic mice were injected with MCF7 cells, and drug treatment was initiated when mean tumor volume reached approximately 140 mm^3, which occurred 17 days following MCF-7 injection. Daily i.p. drug injections were performed for up to 11 days, and tumor volume was quantified by the formula: tumor volume=L×W^2×π/6. In this pilot experiment, 3-5 mice were tested per group. […] An extended time course, with more mice per group and multiple drug doses, may be performed to determine whether the tumor growth inhibitory effect of combined drug treatment is additive or synergistic.

[3] = tested on: MCF-7, T47D and MDA-MB-468 cells; experiment: Cell proliferation by Alamar blue reduction, breast adenocarcinoma cultures; assay type: cell-based, human; parameters: anti-proliferative effect: dose or concentration left out as unconfirmed; details: for inhibition of cell proliferation: after 4 days of treatment, six drug concentrations; for anti-proliferative effect: 4 days
Description: In vitro cell proliferation was quantitated by Alamar blue reduction. The anti-proliferative effects of six drug concentrations of the indicated drugs were quantitated after 4 days of treatment.

[4] = tested on: T-47D breast adenocarcinoma cells; experiment: Cell size by flow cytometry (mean FSC-H, G1 phase); assay type: cell-based, human; details: 10 μM, 24 hours; control 412±5
Experimental: FIG. 31A is a differential interference contrast (DIC) image of MDA-MB-468 breast adenocarcinoma cells treated for ˜20 hours with DMSO (drug vehicle control), 10 μM IPAG (antagonist) or 10 μM PRE084 (agonist). A twenty-micron bar is shown in each image. Data are presented as mean±SEM. FIG. 31B is a graph illustrating the finding that IPAG diminished the mean cell size (FSC-H) of MDA-MB-468 breast tumor cells in a time-responsive manner. The mean FSC-H of 370±5 at to decreased to 323±4 after 24 hours of IPAG treatment and to 267±2 after 48 hours of treatment. Two-tailed t-tests were performed to determine statistical significance. For IPAG treatment compared to control (DMSO) and Sigma agonists (SKF and PRE084), P=0.0002 at d1 and P=0.00013 at d2. Data were generated from three to five independent determinations for each time-point. Flow cytometry was used to measure mean cell size (mean FSC-H) of T-47D breast adenocarcinoma cells. FIG. 31C is a bar graph illustrating T-47D cells treated for 24 hours with 10 μM indicated Sigma ligand. IPAG and BD 1047 (Sigma1 antagonists) diminished cell size from a mean FSC-H of 412±5 for control (DMSO) cells versus 341±7 and 381±8 for IPAG and BD1047 treated cells, respectively. […] Data represent 5 independent determinations (*P<0.05, ***P<0.001). FIG. 31D is a bar graph illustrating how IPAG (antagonist) decreases cell size in a dose responsive manner. T-47D were treated for 24 h with 1 and 10 μM IPAG, and mean FSC-H was measured. FIG. 31E is a graph illustrating that T47D cell size decreases over time. T-47D cells were treated for a total of 48 hours with 10 μM of the indicated Sigma ligands. […] Neither Sigma1 agonist, (+)-SKF10047 and PRE084, altered cell size. […] Two-tailed t-tests were performed to determine statistical significance. For IPAG treatment compared to control (DMSO) and Sigma1 agonists (SKF and PRE084), P=0.0002 at d1 and P<0.0001 at d2. For FIGS. 31B-31E, the mean FSC-H was determined for each cell cycle population (i.e., G1, S, G2/M), and data is shown for G1 phase cells. S and G2/M phase cells responded similarly (data not shown).

[5] = tested on: MDA-MB-468 breast tumor cells; experiment: Akt, S6K and ERK phosphorylation immunoblots; assay type: cell-based, human; details: 10 μM, 24 hours
Experimental: FIG. 40, comprising FIGS. 40A-40C, illustrates Sigma1 antagonist modulation of Akt, S6K, and ERK phosphorylation. MDA-MB-468 breast tumor cells were treated for 24 hours with 10 μM IPAG (Sigma1 antagonist) or (+)SKF-10047 (SKF, Sigma1 agonist). Treated cells were harvested and cellular proteins were extracted with a buffer containing 1% Sodium Dodecyl Sulfate (SDS) and deoxycholate (DOC), supplemented with phosphatase and protease inhibitors. FIG. 40A is an image of an immunoblot illustrating Akt phosphorylation. […] Akt phosphorylation at threonine 308 was not altered in any of the samples (not shown). Equivalent loading was confirmed with an anti-GAPDH antibody. FIG. 40B is an image of an immunoblot illustrating phosphorylation. Phosphorylation of mTOR substrate, p70S6K at threonine 389 decreased 3-fold in IPAG, but not SKF treated cells. Total p70S6K was immunoblotted as a loading control. FIG. 40C is an immunoblot illustrating that p44/42 ERK1/2phosphorylation at threonine 202 and tyrosine 204 was abrogated by 24 hour treatment with IPAG. Data shown is representative of two independent experiments.

[6] = tested on: T47D and MDA-MB-468 cells; experiment: Cell cycle profile (G1, S, G2 phase cells); assay type: cell-based, human; details: 24 hours; IPAG 1 μM (T47D) or 10 μM (MDA-MB-468); (+)-SKF-10047 10 μM
Experimental: FIG. 30, comprising FIGS. 30A-30B, illustrates that Sigma1 antagonists mediate cell cycle arrest. […] FIG. 30A is a graph illustrating the percentage of G1, S, and G2 phase cells in T47D cells treated for 24 hours with DMSO (vehicle control), 1 μM IPAG (Sigma1 antagonist), or 10 μM (+)SKF-10047 (Sigma1 agonist). FIG. 30 B is a graph illustrating the percentage of G1, S, and G2 phase cells in MDA-MB-468 cells treated for 24 hours with DMSO (vehicle control), 10 μM IPAG (Sigma1 antagonist), or 10 μM (+)-SKF-10047 (Sigma1 agonist).

In the case of Cn1cnc(N)c2ncnc1-2 [Compound 3-MA, 3-methyladenine], the punctae per cell ([1]; 5 mM 3-MA alone, 24 hours) is reported as 5±1 punctae per cell and the “dead cells per well” value (MDA-MB-468 cells) is reported as 6±2%.

With C[C@@H]1CN(CCCn2c3ccccc3c3ccccc32)C[C@H](C)N1 [rimcazole, 9-{3-[(3R,5S)-3,5-dimethylpiperazin-1-yl]propyl}-9H-carbazole] the EC50 [1] was 50 ± 8 µM, the “concentration at which precipitous cell death occurred” value [1] was 100 µM and the “conversion of LC3 to LC3II (autophagosome formation)” value [2] was “converted LC3 to LC3II”. The “inhibition of tumor growth” value (MCF7 tumor xenograft) was “approximately 50%”, the tumor growth (MCF7 tumor xenograft; tamoxifen (1 mg/kg) and Rimcazole (10 mg/kg) combined, 11 day time course) was “completely inhibited” and the “inhibition of cell proliferation” value [3] was “inhibited cell proliferation with comparable potencies in all cell lines”.

CN(C)CCN(C)CCc1ccc(Cl)c(Cl)c1 [BD1047, N′-[2-(3,4-dichlorophenyl)ethyl]-N,N,N′-trimethylethane-1,2-diamine] was tested, and the “mean FSC-H (relative cell size)” value [4] was 381±8 and the “inhibition of cell proliferation” value [3] was “also inhibited cell proliferation”.

C=CCN1CC[C@]2(C)c3cc(O)ccc3C[C@H]1[C@H]2C (relative stereo) [(+)-SKF10047, [2S-(2α,6α,11R*]-1,2,3,4,5,6-hexahydro-6,11-dimethyl-3-(2-propenyl)-2,6-methano-3-benzazocin-8-ol] was tested, and the “GFP-LC3 punctae per cell” value ([1]; 24 hours) was at most 5±1 punctae per cell, the “mean FSC-H (relative cell size)” value [4] was “did not alter cell size” and the “decrease of Akt phosphorylation at serine 473” value [5] was “did not alter Akt phosphorylation”. For the same compound, the anti-proliferative effect [3] was “ineffective” and the cell cycle profile [6] was “did not present significant difference in cell cycle profile”.

With CN1CCN(CCc2ccc(Cl)c(Cl)c2)CC1 [BD1063, 1-[2-(3,4-dichlorophenyl)ethyl]-4-methylpiperazine] the “inhibition of cell proliferation” value [3] was “also inhibited cell proliferation”.

CC/C(=C(\c1ccccc1)c1ccc(OCCN(C)C)cc1)c1ccccc1 [tamoxifen, (Z)-2-[4-(1,2-diphenylbut-1-enyl)phenoxy]-N,N-dimethylethanamine] was tested, and the “inhibition of tumor growth” value (MCF7 tumor xenograft) was “approximately 50%” and the “inhibition of cell proliferation” value [3] was “inhibited cell proliferation with similar potencies”.

With COc1cccc2c1CCCC2CCCN1CCN(C2CCCCC2)CC1 (centres unmarked) [PB28, 1-cyclohexyl-4-[3-(5-methoxy-1,2,3,4-tetra-hydronaphthalen-1-yl)propyl]piperazine] the EC50 [1] was 52 ± 9 µM, the “concentration at which precipitous cell death occurred” value [1] was 100 µM and the “conversion of LC3 to LC3II (autophagosome formation)” value [2] was “converted LC3 to LC3II”.

With CC(C)=CCN1CC[C@]2(C)c3cc(O)ccc3C[C@H]1[C@H]2C (relative stereo) [(+)-pentazocine, (+)-[2S-(2,6,11R*)]-1,2,3,4,5,6-hexahydro-6,1-dimethyl-3-(3-methyl-2-butenyl)-2,6-methano-3-benzazocin-8-ol] the “GFP-LC3 punctae per cell” value ([1]; 24 hours) was at most 6±1 punctae per cell and the anti-proliferative effect [3] was “ineffective”.
